Reference: patent US8258295B2, “Triazine derivatives, compositions containing such derivatives, and methods of treatment of cancer and autoimmune diseases using such derivatives” (Prometic Biosciences Inc., priority 2007, dated 2012)
Read-outs that look alike come from different tables or passages of the source.

What was measured:
[1] = system: NHDF (normal human dermal fibroblast); assay: MTT cytotoxicity on NHDF; format: cell-based
Method: (§1) This assay was performed to determine the effect of compounds of the present invention on cell cytotoxicity. Cells were incubated in presence or absence of compounds in their respective conditioned media. After 24 hr or 72 hr incubation, 50 μl of 3-(4,5-dimethyl-2-thiazyl)-2,5-diphenyl-2H-tetrazolium bromide (MTT; 2 mg/ml) was added and further incubated for 4 hr. The supernatant was discarded and 100 μl of dimethylsulfoxide (DMSO) was added. Absorbance was read at 570 nm with a TecanSunrise ELISA plate reader. The control group consisted of cells without compounds and is referred to as 100% of viable cells. IC50 was determined using Prism software.
(§2) All compounds have weak effect on cell cytotoxicity. The predictive utility of cell based cytotoxicity assays to assess the potential in vivo anticancer activity of compounds with selected cancer cell lines is well established in the art and the use of whole cells, instead of isolated protein receptors or enzymes, provides a more reliable determination of activity. See, for example, Paull et al. (J. Nat'l Cancer Inst. 81:1088-1092, 1989); Monks et al. (J. Nat'l Cancer Inst. 83:757-766, 1991); Bandes et al. (J. Nat'l Cancer Inst. 86:770-775, 1994); and Kamate et al. (Int'l J. Cancer 100:571-579, 2002).

[2] = PBML cytotoxicity (MTT); format: cell-based, human; conditions: human, resting PBML
Description: (§3) PBML were obtained from the peripheral blood of healthy volunteers. Blood was submitted to gradient centrifugation with Lympholyte-Poly media (Cedarlane, Hornby, Canada). The layer containing the mononuclear leukocytes was collected and the cells washed three times in PBS. Cells were then suspended in RPMI (Gibco, Burlington, Canada) supplemented with 10% FBS (Hyclone, Logan USA). Viability was greater than 99% as determined by trypan blue exclusion.
(§4) PBML were resuspended at 2×10^6 cells/ml. 100 μl of PBML (2×10^5 cells) were incubated in a 96-well microtiter plate for 48 hr in the presence or absence of compound. Cells were quiescent or stimulated with concanavalin A (con A; T-cells) or pokeweed mitogen (PWM; B-cells). After incubation, cells were treated with MTT (cytotoxicity) or pulsed with 1 μCi of [^3H]-thymidine (DNA synthesis), [^3H]-uridine (RNA synthesis), or [^3H]-leucine (protein synthesis) for 6 hr. Plates were harvested on a Tomteck and counted on a Microbeta β-counter.

[3] = system: peripheral blood mononuclear leukocytes (PBML); assay: PBML cytotoxicity (MTT); format: cell-based, human; conditions: 48 hr
Description: as §3, §4

[4] = system: oxazolone-induced delayed-type hypersensitivity (DTH); assay: Oxazolone-induced delayed-type hypersensitivity (DTH) in mice; format: in vivo
Method: Compounds were tested for their ability to treat oxazolone-induced delayed-type hypersensitivity (DTH) in mice. […] On day 0, day 1, and day 2, mice were treated by intravenous (IV) or oral (PO) administrations of the vehicle (control) or methotrexate (MTX; positive control/IV) or hydrocortisone (positive control/PO) or the compound at concentration lower than or equal to 50 mg/kg or as specified. Mice were challenged with an application of 50 μl of oxazolone on the surface of the right ear (first challenge, day 3; second challenge, day 10). Ear thickness was measured on day 4 to day 7, and on day 11 to 14. Redness and crust formation was also observed. Mice were sacrificed on day 14. TDTH (CD4) cells play an important role in regulating the intensity of the DTH response. Compounds may exert an inhibitory influence on the DTH response through its inhibition of T-cell activation and DNA, RNA, and/or protein synthesis.

[5] = system: peripheral blood mononuclear leukocytes (PBML); assay: PBML DNA synthesis ([3H]-thymidine); format: cell-based; conditions: Homo sapiens, Leukocyte, 48 hr
Description: as §3, §4

[6] = system: peripheral blood mononuclear leukocytes (PBML); assay: PBML protein synthesis ([3H]-leucine); format: cell-based; conditions: Homo sapiens, Leukocyte, 48 hr
Description: as §3, §4

[7] = system: B16F10 melanoma; assay: Primary B16F10 melanoma tumor in mice; format: in vivo; conditions: C57BL/6 mice, IV on day 14, 16, 18; FIG. 2A/2B
Method: Female 6-8 week old C57BL/6 mice were injected intradermally on day 0 with 50 μl of 3.75×10^4 viable B16F10 melanoma cells from ATCC (source of cell culture, Dr. I. J. Fidler). On day 14, tumors reached […] and animals were randomized for treatments. Animals were then injected IV with saline (negative control) or compound (5 mg/kg, 25 mg/kg, or 50 mg/kg) on day 14, day 16, and day 18 or 10 mg/kg doxorubicin (positive control) on day 14. Mice were sacrificed on day 29. Body weight and tumor volume were recorded. Serial tumor volume was obtained by bi-dimensional diameter measurements with calipers, using the formula 0.4 (a×b^2) where “a” was the major tumor diameter and “b” the minor perpendicular diameter. An antitumor effect can be quantitated by T/C, which is calculated as (Treated tumor volume/Control tumor volume)×100%.

[8] = system: P815 murine mastocytoma cell; assay: MTT cytotoxicity on P815; format: cell-based; conditions: Mus musculus
Method: as §1, §2

[9] = system: peripheral blood mononuclear leukocytes (PBML); assay: PBML RNA synthesis ([3H]-uridine); format: cell-based; conditions: Homo sapiens, Leukocyte, 48 hr
Description: as §3, §4

[10] = 24 hr culture, read-out: IC50 of 24-hour culture NHDF
[11] = 72 hr culture, read-out: IC50 of 72-hour culture NHDF
[12] = PWM stimulated PBML, read-out: Cytotoxicity PWM
[13] = con A stimulated PBML, read-out: Cytotoxicity Con A
[14] = PWM stimulated PBML, read-out: DNA Synthesis PWM
[15] = con A stimulated PBML, read-out: DNA Synthesis Con A
[16] = resting PBML, read-out: DNA Synthesis Resting
[17] = PWM stimulated PBML, read-out: Protein Synthesis PWM
[18] = con A stimulated PBML, read-out: Protein Synthesis Con A
[19] = resting PBML, read-out: Protein Synthesis Resting
[20] = 24 hr culture, read-out: IC50 of 24-hour culture P815
[21] = 72 hr culture, read-out: IC50 of 72-hour culture P815
[22] = PWM stimulated PBML, read-out: RNA Synthesis PWM
[23] = resting PBML, read-out: RNA Synthesis Resting

SMILES	IC50 [1, 10]	IC50 [1, 11]	IC50 at 48 h [2]	IC50 [3, 12]	IC50 [3, 13]	IC50 [5, 14]	IC50 [5, 15]	IC50 [5, 16]	IC50 [6, 17]	IC50 [6, 18]	IC50 [6, 19]	T/C (treated/control tumor volume) [7]	IC50 [8, 20]	IC50 [8, 21]	IC50 [9, 22]	IC50 [9, 23]	other results
NCCCCCNc1nc(NCCc2ccc(S(N)(=O)=O)cc2)nc(Nc2cccc(F)c2)n1 [Compound II]	> 100 µM	28.6 µM	> 10 µM	> 10 µM	> 10 µM	1.7 µM	2.9 µM	> 10 µM	5.7 µM	6.4 µM	> 10 µM	around 80%	66.5 µM	1.6 µM	1.1 µM	5.8 µM	inflammation (ear thickness) after DTH ([4]; IV 5 mg/kg, first challenge of oxazolone): significant reduction of the inflammation; inflammation (ear thickness) after DTH ([4]; IV 5 mg/kg, second challenge of oxazolone): significant reduction of the inflammation
NCCCCCNc1nc(NCCc2ccc(O)cc2)nc(Nc2cccc(F)c2)n1 [Compound I]	56.8 µM	16.3 µM	> 10 µM	> 10 µM	> 10 µM	2.8 µM	3.7 µM	> 10 µM	9.9 µM	4.4 µM	> 10 µM	around 80%	34 µM	4 µM	2.2 µM	6.8 µM	inflammation (ear thickness) after DTH ([4]; IV 25 mg/kg, first challenge of oxazolone): significant reduction of the inflammation; inflammation (ear thickness) after DTH ([4]; IV 25 mg/kg, second challenge of oxazolone): significant reduction of the inflammation
NCCCCCNc1nc(NCCc2ccc(O)cc2)nc(Nc2ccc(F)cc2)n1 [Compound V]	78.6 µM	45.8 µM	> 10 µM	> 10 µM	> 10 µM	6.1 µM	8 µM	> 10 µM	> 10 µM	> 10 µM	> 10 µM	< 40%	23.5 µM	7.5 µM	4.5 µM	7.4 µM	inflammation (ear thickness) after DTH ([4]; oral 50 mg/kg, FIG. 15): significant reduction of the inflammation; IC50 ([9]; con A stimulated PBML, read-out: RNA Synthesis Con A): 6 µM
